“And” between values parts separate entries of the source, which are not always exact repeats. Equal entries are not always repeated. “Also recorded” adds a separate entry of the source.
Columns and labels:
Assay type in all cases: in vivo
[1] = tested on: hearts from Tfr1^hrt/hrt mice; assay: p62 protein levels in hearts of NR-treated mice; conditions: NR treated vs untreated, FIGS. 20A and 20B
From the text: Atg9A (Novus Biologicals).

[2] = tested on: hearts from Tfr1^hrt/hrt mice; assay: UPR^MT mRNA levels in hearts of NR-treated mice (real-time PCR); conditions: P10 hearts, NR treated vs untreated, FIGS. 19A and 19B
Protocol: Total heart RNA was isolated from flash-frozen tissue using the RNeasy Fibrous Tissue Mini Kit (Qiagen) and reverse transcribed as described in Schmidt et al. (2008) Cell Metab. […] For the microarray analysis, the Affymetrix GeneChip® Mouse Genome 430 2.0 Array was used. A minimum of 200 ng RNA was used for each sample. RNA samples were processed by the Duke Microarray Shared Resource Services. Transcript abundance was quantified by 2-step real-time PCR, using amplification conditions as described in Schmidt et al. (2008) Cell Metab. […] Primers are summarized in Table 2 and Rpl19 was used as an internal control.

Tfr1^hrt/hrt mice [3] = assay: NR rescue experiment, survival of Tfr1^hrt/hrt mice
From the text: 129/SvEv mice bearing a floxed Tfrc allele were crossed with transgenic C57BL/6 mice expressing Cre recombinase under the control of the a-MyHC promoter. Backcrossing was with 129/SvEv mice for more than 10 generations and after the initial phenotypic characterization, all studies used mice with a homogeneous 129/SvEv background. Animals were genotyped by polymerase chain reaction (PCR) using genomic DNA from toe clips. Primers for Tfrc alleles, Cre, Hjv alleles, and Rosa26 are described in Table 1.
One-way ANOVA was performed for comparisons between two means, including when the comparison was between the means of WT and Tfr1^hrt/hrt. Survival analysis was performed using Logrank in Graphpad software. P<0.05 was considered statistically significant.
An independent statistical analysis for survival analysis was also performed as described below.
(§1) Survival time was modeled as follows: Tij=μ+Bj+sij
(§2) Where Tij was the survival time (in days) for the i-th mouse in the j-th group. The model explained this in terms of a baseline mean m, an effect bj for the j-th group (relative to baseline) and inter-mouse variation eij. The model was fit using ordinary least squares (1-way ANOVA).
(§3) For the NR rescue experiment, the baseline was Tfr1^hrt/hrt with PBS. There was no significant improvement in mean survival when using just Tfr1^hrt/hrt (0.625 days, p-value=0.26, Table 3). There was, however, a significant improvement in the Tfr1^hrt/hrt with NR group (2.29 days, p-value<0.001). For statistical calculations, lifespan was over 19.6 days for wild-type mice.

Tfr1^hrt/hrt mice [4] = assay: NAD/NADH ratios in tissue with and without NR treatment; conditions: measurements from tissue
WT mice = assay: NR rescue experiment, survival of WT mice with NR; conditions: baseline Tfr1^hrt/hrt with PBS, for calculations lifespan was over 19.6 days for wild-type mice
From the text: as §1, §2, §3

NC(=O)c1ccc[n+]([C@@H]2O[C@H](CO)[C@@H](O)[C@H]2O)c1 [NR, nicotinamide riboside]
Accumulation of p62 in the hearts [1]: alleviated the accumulation | Expression of UPR^MT mRNAs (Atf4, Lonp1, Ddit3, Fgf21) in heart [2]: decreased expression; also recorded: blunted | Extension of lifespan (Tfr1^hrt/hrt mice [3]; Tfr1^hrt/hrt mice, NR administration, FIG. 7E): up to 5 days | Prolongation of lifespans (Tfr1^hrt/hrt mice [3]; Tfr1^hrt/hrt mice, NR vs vehicle, FIG. 7E): up to 50% | Effect: improvement in mean survival relative to baseline (Tfr1^hrt/hrt mice [3]; Tfr1^hrt/hrt with NR, 750 mg/kg IP daily from P5, baseline Tfr1^hrt/hrt with PBS (10.375), 1-way ANOVA model, p<0.001, 750 mg/kg): 2.29 days and 2.292 days | Lifespan of treated mice (in words) (Tfr1^hrt/hrt mice [3]; in the absence of iron therapy): increased the lifespan | NAD/NADH ratios (Tfr1^hrt/hrt mice [4]): inconclusive | Effect: survival relative to baseline (WT mice): 19.625 days

— US10525070B2, “Method of treating heart failure” (priority 2015, dated 2020)
